Data from patent US20020119496A1, “Nuclear magnetic resonance screening method” (priority 2000, published 2002).

Molecular target: T1, human muscle fatty acid binding protein M-FABP (Homo sapiens, UniProt P05413)
T1 construct: a plasmid containing the gene coding for a 143 amino acid protein construct of M-FABP; His-tag (C); made in house; host or cells: prototrophic Escherichia coli
Assay: Site-selective NMR screening, 1H-15N fHSQC of 13C'-Val, 15N-Ala labeled M-FABP
Details: 1:1 mixture with M-FABP, 200 μM protein
Procedure: The spectra were recorded at 20° C. on a 600 MHz Varian Unity INOVA NMR spectrometer using standard techniques. The sample was prepared in 20 mM sodium phosphate buffer (10% D2O/90% H2O) pH 7.4 containing 50 mM NaCl, 10 mM DTT and 0.02% NaN3. […] (a) 2D ^1H-^15N fast-HSQC (Mori et al., 1995), (b) 2D HNCO and (c) 1D HNCO. […] Experimental times were 1 hour, 4 hours, and 20 minutes respectively.
Experimental conditions were identical to those described in FIG. 8 except the samples used for spectra b-d contained additionally 1% d-DMSO. (a-d) Reference spectrum of free M-FABP. (b) 1:1 mixture of M-FABP and compound cocktail. (c) 1:1 mixture M-FABP and compound cocktail omitting oleic acid. (d) 1:1 mixture of M-FABP and oleic acid.

T1 sequence (P05413 whole entry): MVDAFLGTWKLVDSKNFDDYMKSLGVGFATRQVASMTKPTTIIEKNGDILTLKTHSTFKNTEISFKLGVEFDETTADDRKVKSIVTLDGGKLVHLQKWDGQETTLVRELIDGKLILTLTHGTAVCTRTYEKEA

CCCCCCCC/C=C\CCCCCCCC(=O)O [oleic acid]
chemical shift change of alanine 33 HSQC cross peak: chemical shift change is observed
